The text below walks through data of patent US12643847B2, “Treprostinil derivatives and compositions and uses thereof” (CORSAIR PHARMA, INC., priority 2015, dated 2026).

The test system of one data set is PAH patients. The following applies: inhaled form; cited from earlier work.
The conditions of data set [1]: treprostinil as the free acid, cited from earlier work.
Data set [2] can be described thus: Human skin homogenate stability assay (Test 3). It counts as in vitro ADME. As to conditions: half-life in human skin homogenate, 0.5 μM test compound, 37° C., up to 45 min, NADPH-generating system, pH 7.4; read-out: Test 3 T1/2. The method, then: At 0, 5, 15, 30 and 45 min, an aliquot was taken and quenched with internal standard-containing stop solution. No co-factor controls at 45 min were prepared. After incubation, the samples were analyzed by LC-MS/MS. Peak area ratios of analyte to internal standard were used to calculate the intrinsic clearance. The intrinsic clearance (CLin t) was determined from the first-order elimination constant by non-linear regression.

The nature of data set [3]: Human plasma stability assay (Test 2). In kind it is in vitro ADME. The following applies: half-life in heparinated human plasma, 0.5 μM test compound, 37° C.; read-out: Test 2 T1/2. The method, then:
(Test 2) Human plasma stability assay was conducted by incubating 0.5 μM test compound at 37° C. for up to 120 min in heparinated human plasma. At 0, 5, 15, 30, 60, 120 and […], an aliquot was taken and quenched with internal standard-containing stop solution. After incubation, the samples were analyzed by LC-MS/MS. Peak area ratios of analyte to internal standard were used to calculate the half-life.

Data set [4] can be described thus: Human liver microsomal stability assay (Test 1). It counts as in vitro ADME. As to conditions: half-life in human liver microsomes, 0.5 μM test compound, 37° C., up to 45 min, NADPH-generating system, pH 7.4; read-out: Test 1 T1/2. The method, then:
(Test 1) Human liver microsomal stability assay was conducted by incubating 0.5 μM test compound at 37° C. for up to 45 minutes in 50 mM potassium phosphate buffer (pH 7.4) containing 0.5 mg of microsomal protein and 50 μL of NADPH-generating system (7.8 mg of glucose 6-phosphate, 1.7 mg of NADPH and 6 U of glucose 6-phosphate dehydrogenase per mL in 2% w/v of sodium bicarbonate). At 0, 5, 15, 30 and 45 min, an aliquot was taken and quenched with internal standard-containing stop solution. No co-factor controls at 45 min were prepared. After incubation, the samples were analyzed by LC-MS/MS. Peak area ratios of analyte to internal standard were used to calculate the intrinsic clearance. The intrinsic clearance (CLint) was determined from the first-order elimination constant by non-linear regression.
(In general: Liver microsomes are vesicles of endoplasmic reticulum, rich in cytochrome P450 enzymes.)

Take `CCCCC[C@H](O)CC[C@@H]1[C@H]2Cc3cccc(OCC(=O)O)c3C[C@H]2C[C@H]1O` [Compound A, Treprostinil]: in the data set with PAH patients, the “PAH patients who cannot take inhaled treprostinil due to irritation” value is “about 50%”. For the same compound, the absolute oral bioavailability entry in data set [1] (oral) is given as “less than 10%”. Further, in data set [1] (due to significant metabolism), the systemic half-life entry is recorded as “very short”.

Consider `CCCCC[C@H](O)CC[C@@H]1[C@H]2Cc3cccc(OCC(=O)O)c3C[C@H]2C[C@H]1OC(=O)CC` [Compound Ia-1], for which the half-life at 0.5 μM in data set [2] is above 1 h; in data set [3] it was above 1 h; in data set [4] it was below 0.25 h.

Take `CCCCC[C@H](O)CC[C@@H]1[C@H]2Cc3cccc(OCC(=O)O)c3C[C@H]2C[C@H]1OC(=O)OC` [Compound Ia-10, [1-(3-hydroxyoctyl)-2-methoxycarbonyloxy-2,3,3a,4,9,9a-hexahydro-1H-cyclopenta[b]naphthalen-5-yloxy]acetic acid]: the half-life at 0.5 μM was above 1 h in data set [2], above 1 h in data set [3] and below 0.25 h in data set [4].

For `CCCCC[C@@H](CC[C@@H]1[C@H]2Cc3cccc(OCC(=O)O)c3C[C@H]2C[C@H]1O)OC(=O)COC` [Compound Ib-8, {2-hydroxy-1-[3-(2-methoxyacetoxy)octyl]-2,3,3a,4,9,9a-hexahydro-1H-cyclopenta[b]naphthalen-5-yloxy}acetic acid], the half-life at 0.5 μM is above 1 h in data set [2], above 1 h in data set [3] and below 0.25 h in data set [4].

Regarding `CCCCC[C@H](O)CC[C@@H]1[C@H]2Cc3cccc(OCC(=O)OCC(=O)O)c3C[C@H]2C[C@H]1O` [II-1], the half-life at 0.5 μM in data set [2] is above 1 h; in data set [3], above 1 h; in data set [4], 0.517 to 1 h.

For the compound `CCCCC[C@H](O)CC[C@@H]1[C@H]2Cc3cccc(OCC(=O)O[C@H](C)C(=O)O)c3C[C@H]2C[C@H]1O` [II-2], the half-life at 0.5 μM in data set [2] is above 1 h; in data set [3] it was above 1 h; in data set [4], 0.517 to 1 h.

In the case of `CCCCCC(O)CCC1C(O)CC2Cc3c(cccc3OCC(=O)OCCC(=O)O)CC21` (stereo not drawn) [II-4, 3-{2-[2-hydroxy-1-(3-hydroxyoctyl)-2,3,3a,4,9,9a-hexahydro-1H-cyclopenta[b]naphthalen-5-yloxy]acetoxy}propionic acid], the half-life at 0.5 μM was above 1 h in data set [2], above 1 h in data set [3] and 0.25 to 0.5 h in data set [4].

With `CCCCC[C@H](O)CC[C@@H]1[C@H]2Cc3cccc(OCC(=O)O)c3C[C@H]2C[C@H]1OC(=O)CCCC` [Ia-3], the half-life at 0.5 μM in data set [2] is above 1 h; in data set [3] it was above 1 h; in data set [4], below 0.25 h.

For `CCCCC[C@H](O)CC[C@@H]1[C@H]2Cc3cccc(OCC(=O)O)c3C[C@H]2C[C@H]1OC(=O)COCC` [Ia-9], the half-life at 0.5 μM in data set [2] was above 1 h; in data set [3] it was above 1 h; in data set [4] it was below 0.25 h.
